Results published in paper PMC9224473 (International Journal of Molecular Sciences, 2022).
In brackets after ≈: the same amount, converted by molar mass.

Assays:
[1] = tested on: S. aureus NCTC 4163; assay: MIC, broth microdilution, standard strain; assay type: cell-based, Staphylococcus aureus; conditions: Staphylococcus aureus, NCTC4163, 19 h, 35 °C
[2] = tested on: S. aureus ATCC 25923; assay: MIC, broth microdilution, standard strain; assay type: cell-based, Staphylococcus aureus; conditions: Staphylococcus aureus, ATCC25923, 19 h, 35 °C
[3] = tested on: S. aureus ATCC 6538; assay: MIC, broth microdilution, standard strain; assay type: cell-based, Staphylococcus aureus; conditions: Staphylococcus aureus, ATCC6538, 19 h, 35 °C
[4] = tested on: S. aureus ATCC 29213; assay: MIC, broth microdilution, standard strain; assay type: cell-based, Staphylococcus aureus; conditions: Staphylococcus aureus, ATCC29213, 19 h, 35 °C
[5] = tested on: S. epidermidis ATCC 12228; assay: MIC, broth microdilution, standard strain; assay type: cell-based, Staphylococcus epidermidis; conditions: Staphylococcus epidermidis, ATCC12228, 19 h, 35 °C
[6] = tested on: S. epidermidis ATCC 35984; assay: MIC, broth microdilution, standard strain; assay type: cell-based, Staphylococcus epidermidis; conditions: Staphylococcus epidermidis, ATCC35984, 19 h, 35 °C
[7] = tested on: E. coli ATCC 25922; assay: MIC, broth microdilution, standard strain; assay type: cell-based, Escherichia coli; conditions: 35 °C; for MIC: Escherichia coli, ATCC25922, 19 h
[8] = tested on: P. aeruginosa ATCC 15442; assay: MIC, broth microdilution, standard strain; assay type: cell-based, Pseudomonas aeruginosa; conditions: Pseudomonas aeruginosa, ATCC15442, 19 h, 35 °C
[9] = tested on: HCT116 (human colon cancer); assay: MTT cytotoxicity assay; assay type: cell-based; conditions: Homo sapiens, HCT-116, 72 h, mean SD
Description: (§1) The human cell lines SW480 (primary colon cancer), SW620 (lymph node metastatic colon cancer from the same patient as primary cancer cells), HCT116 (colon carcinoma), HepG2 (liver cancer), and HaCaT (immortalized keratinocytes) were obtained from the American Type Culture Collection (ATCC, Rockville, MD, USA). The SW480, SW620 and HCT116 cells were grown in MEM (ThermoSci, Waltham, MA, USA), HepG2 and HaCaT in DMEM High Glucose (Biowest SAS, Nuaillé, France) supplemented with 10% foetal bovine serum (FBS), HEPES (20 mM), and antibiotics (100 U mL^−1 of Penicillin and 100 μg mL^−1 of Streptomycin). The cells were incubated in a humidified incubator at 37 °C/5% CO2, until 80–90% confluence was reached.
(§2) The cell viability was assessed by using of MTT salt [3-(4,5-dimethylthiazol-2-yl)-2,5-diphenyltetrazolium bromide] converted by mitochondrial dehydrogenase, occurring in living cells. The cells were seeded in 96-well plates at a density of 1 × 10^4 cells per well and allowed to adhere for 24 h at 37 °C in a CO2 humidified incubator. […]. The untreated cells were used as the control.
(§3) After 72 h incubation, the medium was replaced with 200 µL per well of free-serum medium containing 0.5 mg mL^−1 MTT and incubated for 4 h at 37 °C in a CO2 humidified incubator. Subsequently, the medium was removed and dimethyl sulfoxide (DMSO) with isopropanol (1:1) was added to dissolve the formazan crystals. The optical density was measured using UVM 340 reader (ASYS Hitech GmbH, Eugendorf, Austria) at a wavelength of 570 nm. The experiments were repeated three times. The cell viability was calculated as the percent of MTT reduced in treated cells versus control cells (untreated cells). The number of viable cells cultured without tested compounds was assumed as 100%. A decreased relative MTT level indicates decreased cell viability. The IC50 values were estimated using CompuSyn version 1.0.

[10] = tested on: HaCaT (human immortal keratinocyte cell line); assay: MTT cytotoxicity assay; assay type: cell-based; conditions: Homo sapiens, HaCaT, 72 h, mean SD, read-out: IC50 HaCaT (normal cells)
Description: as §1, §2, §3

[11] = tested on: HepG2 (human liver cancer); assay: MTT cytotoxicity assay; assay type: cell-based; conditions: Homo sapiens, HepG2, 72 h, mean SD
Description: as §1, §2, §3

[12] = tested on: SW480 (human primary colon cancer); assay: MTT cytotoxicity assay; assay type: cell-based; conditions: Homo sapiens, SW480, 72 h, mean SD
Description: as §1, §2, §3

[13] = tested on: SW620 (human metastatic colon cancer); assay: MTT cytotoxicity assay; assay type: cell-based; conditions: Homo sapiens, SW-620, 72 h, mean SD
Description: as §1
The cell viability was assessed by using of MTT salt [3-(4,5-dimethylthiazol-2-yl)-2,5-diphenyltetrazolium bromide] converted by mitochondrial dehydrogenase, occurring in living cells. […] The untreated cells were used as the control.
as §3, with “Subsequently,” for “After 72 h incubation, the medium was replaced with 200 µL per well of free-serum medium containing 0.5 mg mL^−1 MTT and incubated for 4 h at 37 °C in a CO2 humidified incubator. Subsequently,”

[14] = tested on: standard bacteria strains; assay: Antimicrobial screening (MIC), standard bacteria strains; assay type: cell-based; conditions: MIC evaluation
Description: Obtained compounds were examined for antimicrobial potency. Firstly, all of them were screened for their minimal inhibitory concentrations (MICs). A suitable set of bacteria was used, including representative standard Gram-positive and Gram-negative rods (Table 2 and Table 3). For clarity, results are presented for menthol and thymol derivatives separately.
The antimicrobial assays were conducted using reference strains of bacteria derived from international microbe collections: American Type Culture Collection (ATCC) and National Collection of Type Culture (NCTC). The following standard strains of bacteria were used: Gram-positive—Staphylococcus aureus NCTC 4163, Staphylococcus aureus ATCC 25923, Staphylococcus aureus ATCC 6538, Staphylococcus aureus ATCC 29213, Staphylococcus epidermidis ATCC 12228, Staphylococcus epidermidis ATCC 35984, Gram-negative: Escherichia coli ATCC 25922, Pseudomonas aeruginosa ATCC 15442. […] Antimicrobial activity was examined by the Minimal Inhibitory Concentration (MIC) method under standard procedures provided by CLSI with some modifications. MIC was determined by the two-fold serial broth microdilution method in 96-well microtitration plates using Mueller–Hinton II broth medium (Becton Dickinson, Franklin Lakes, NJ, USA). The final inoculum of all studied bacteria was 10^6 CFU/mL (colony forming unit per millilitre). The stock solution of tested compounds was prepared in dimethyl sulfoxide (DMSO) and diluted to a maximum of 1% of solvent content with a sterile medium.

[15] = tested on: S. epidermidis KR 4243; assay: MIC, broth microdilution, clinical strain; assay type: cell-based, Staphylococcus epidermidis; conditions: Staphylococcus epidermidis, KR4243, 19 h, 35 °C
[16] = tested on: S. pasteuri KR 4358; assay: MIC, broth microdilution, clinical strain; assay type: cell-based, Staphylococcus pasteuri; conditions: Staphylococcus pasteuri, KR4358, 19 h, 35 °C
[17] = tested on: S. aureus T 5595; assay: MIC, broth microdilution, clinical strain; assay type: cell-based, Staphylococcus aureus; conditions: Staphylococcus aureus, T5595, 19 h, 35 °C
[18] = tested on: S. aureus T 5591; assay: MIC, broth microdilution, clinical strain; assay type: cell-based, Staphylococcus aureus; conditions: Staphylococcus aureus, T5591, 19 h, 35 °C
[19] = tested on: E. coli 520; assay: MIC, broth microdilution, clinical strain; assay type: cell-based, Escherichia coli; conditions: Escherichia coli, 520, 19 h, 35 °C
[20] = tested on: E. coli 600; assay: MIC, broth microdilution, clinical strain; assay type: cell-based, Escherichia coli; conditions: Escherichia coli, 600, 19 h, 35 °C
[21] = tested on: E. coli 510; assay: MIC, broth microdilution, clinical strain; assay type: cell-based, Escherichia coli; conditions: Escherichia coli, 510, 19 h, 35 °C
[22] = tested on: P. aeruginosa 659; assay: MIC, broth microdilution, clinical strain; assay type: cell-based, Pseudomonas aeruginosa; conditions: Pseudomonas aeruginosa, 659, read-out: MIC P. aeruginosa 659, 19 h, 35 °C

CC(C)[C@@H]1CC[C@@H](C)C[C@H]1OC(=O)CCCCOC(=O)c1cn(C2CC2)c2cc(N3CCN(CCCCC(=O)O[C@@H]4C[C@H](C)CC[C@H]4C(C)C)CC3)c(F)cc2c1=O [Compound 7, 5-((1R,2S,5R)-2-isopropyl-5-methylcyclohexyloxy)-5-oxopentyl-1-cyclopropyl-6-fluoro-7-{4-[5-((1R,2S,5R)-2-isopropyl-5-methylcyclohexyloxy)-5-oxopentyl]piperazin-1-yl}-4-oxo-1,4-dihydroquinoline-3-carboxylate]
MIC [1]: > 256 mg/L | MIC [2]: > 256 mg/L | MIC [3]: > 256 mg/L | MIC [4]: > 256 mg/L | MIC [5]: > 256 mg/L | MIC [6]: > 256 mg/L | MIC [7]: > 256 mg/L | MIC [8]: > 256 mg/L | IC50 [9]: 49.3 ± 6.5 µM | IC50 [10]: 25.6 ± 1.2 µM | IC50 [11]: 32.8 ± 3.1 µM | IC50 [12]: 45.5 ± 5.5 µM | IC50 [13]: 54.1 ± 0.5 µM | Antimicrobial activity (in words) [14]: rather inactive

CC(C)[C@@H]1CC[C@@H](C)C[C@H]1OCC(=O)N1CCN(c2cc3c(cc2F)c(=O)c(C(=O)O)cn3C2CC2)CC1 [Compound 1, 1-cyclopropyl-6-fluoro-7-{4-[2-((1R,2S,5R)-2-isopropyl-5-methylcyclohexyloxy)acetyl]piperazin-1-yl}-4-oxo-1,4-dihydroquinoline-3-carboxylic acid]
MIC [1]: 2 mg/L (≈ 3.79 µM) | MIC [2]: 4 mg/L (≈ 7.58 µM) | MIC [3]: 4 mg/L (≈ 7.58 µM) | MIC [4]: 4 mg/L (≈ 7.58 µM) | MIC [5]: 4 mg/L (≈ 7.58 µM) | MIC [6]: 2 mg/L (≈ 3.79 µM) | MIC [7]: 32 mg/L (≈ 60.6 µM) | MIC [8]: > 256 mg/L | MIC [15]: 8 mg/L (≈ 15.2 µM) | MIC [16]: 8 mg/L (≈ 15.2 µM) | MIC [17]: 8 mg/L (≈ 15.2 µM) | MIC [18]: 4 mg/L (≈ 7.58 µM) | MIC [19]: 32 mg/L (≈ 60.6 µM) | MIC [20]: 32 mg/L (≈ 60.6 µM) | MIC [21]: > 256 mg/L | MIC [22]: > 256 mg/L | IC50 [9]: 34.9 ± 1.4 µM | IC50 [10]: 21.7 ± 0.8 µM | IC50 [11]: 23.1 ± 0.2 µM | IC50 [12]: 39.9 ± 4.5 µM | IC50 [13]: 28.1 ± 2.1 µM

Cc1ccc(C(C)C)c(OC(=O)CCCCN2CCN(c3cc4c(cc3F)c(=O)c(C(=O)O)cn4C3CC3)CC2)c1 [Compound 13, 1-cyclopropyl-6-fluoro-7-{4-[5-(2-isopropyl-5-methylphenoxy)-5-oxopentyl]piperazin-1-yl}-4-oxo-1,4-dihydroquinoline-3-carboxylic acid]
MIC [1]: 2 mg/L (≈ 3.55 µM) | MIC [2]: 4 mg/L (≈ 7.1 µM) | MIC [3]: 2 mg/L (≈ 3.55 µM) | MIC [4]: 2 mg/L (≈ 3.55 µM) | MIC [5]: 2 mg/L (≈ 3.55 µM) | MIC [6]: 2 mg/L (≈ 3.55 µM) | MIC E. coli ATCC 25922 ([7]; 19 h): 4 mg/L (≈ 7.1 µM) | MIC [7]: 2 to 4 mg/L (≈ 3.55 to 7.1 µM) | MIC [8]: 16 mg/L (≈ 28.4 µM) | MIC [15]: 2 mg/L (≈ 3.55 µM) | MIC [16]: 2 mg/L (≈ 3.55 µM) | MIC [17]: 2 mg/L (≈ 3.55 µM) | MIC [18]: 2 mg/L (≈ 3.55 µM) | MIC [19]: 4 mg/L (≈ 7.1 µM) | MIC [20]: 8 mg/L (≈ 14.2 µM) | MIC [21]: 128 mg/L (≈ 227 µM) | MIC [22]: 128 mg/L (≈ 227 µM) | IC50 [9]: 50.2 ± 3.4 µM | IC50 [10]: > 100 µM | IC50 [11]: 33.8 ± 2.1 µM | IC50 [12]: 48.1 ± 2.8 µM | IC50 [13]: 50.2 ± 0.8 µM

Cc1ccc(C(C)C)c(OCC(=O)N2CCN(c3cc4c(cc3F)c(=O)c(C(=O)O)cn4C3CC3)CC2)c1 [Compound 9, 1-cyclopropyl-6-fluoro-7-{4-[2-(2-isopropyl-5-methylphenoxy)acetyl]piperazin-1-yl}-4-oxo-1,4-dihydroquinoline-3-carboxylic acid]
MIC [1]: 2 mg/L (≈ 3.83 µM) | MIC [2]: 2 mg/L (≈ 3.83 µM) | MIC [3]: 2 mg/L (≈ 3.83 µM) | MIC [4]: 2 mg/L (≈ 3.83 µM) | MIC [5]: 8 mg/L (≈ 15.3 µM) | MIC [6]: 4 mg/L (≈ 7.67 µM) | MIC [7]: 16 mg/L (≈ 30.7 µM) | MIC [8]: 256 mg/L (≈ 491 µM) | MIC [15]: 8 mg/L (≈ 15.3 µM) | MIC [16]: 8 mg/L (≈ 15.3 µM) | MIC [17]: 4 mg/L (≈ 7.67 µM) | MIC [18]: 4 mg/L (≈ 7.67 µM) | MIC [19]: 32 mg/L (≈ 61.4 µM) | MIC [20]: 32 mg/L (≈ 61.4 µM) | MIC [21]: > 256 mg/L | MIC [22]: 256 mg/L (≈ 491 µM) | IC50 [9]: 44.5 ± 4 µM | IC50 [10]: 19.9 ± 2.2 µM | IC50 [11]: 25.7 ± 0.8 µM | IC50 [12]: 28.2 ± 0.6 µM | IC50 [13]: 49.1 ± 4.1 µM
